# Test results as given in PubChem BioAssay (NCI).
#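 Where inhibition never reached the appropriate level, the endpoint shown equals the highest concentration tested. Otherwise, values were interpolated linearly from a five-concentration, 48-hour dose response in 96-well plates. GI50: concentration for 50% inhibition of growth. TGI marks complete inhibition of growth.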
# Experiments:
# Test in all cases: NCI anticancer screen, dose series, 48 h
# NCI-H226 lung = tested on: NCI-H226 lung
# HS 578T breast = tested on: HS 578T breast
# SF-268 CNS = tested on: SF-268 CNS
# HOP-62 NSCLC = tested on: HOP-62 NSCLC
# SK-MEL-5 melanoma = tested on: SK-MEL-5 melanoma
# COLO 205 colon = tested on: COLO 205 colon
# SF-295 CNS = tested on: SF-295 CNS
# NCI-H460 lung = tested on: NCI-H460 lung
# UACC-257 melanoma = tested on: UACC-257 melanoma
# M14 melanoma = tested on: M14 melanoma
# SK-OV-3 ovarian = tested on: SK-OV-3 ovarian
# LOX IMVI melanoma = tested on: LOX IMVI melanoma
# OVCAR-5 ovarian = tested on: OVCAR-5 ovarian
# PC-3 prostate = tested on: PC-3 prostate
# MDA-MB-435 = tested on: MDA-MB-435
# CAKI-1 renal = tested on: CAKI-1 renal
# DU-145 prostate = tested on: DU-145 prostate
# NCI/ADR-RES ovarian = tested on: NCI/ADR-RES ovarian
# HCT-116 colon = tested on: HCT-116 colon
# SNB-19 CNS = tested on: SNB-19 CNS
# U251 CNS = tested on: U251 CNS
# SK-MEL-2 melanoma = tested on: SK-MEL-2 melanoma
# EKVX NSCLC = tested on: EKVX NSCLC
# TK-10 renal = tested on: TK-10 renal
# ACHN renal = tested on: ACHN renal
# SW-620 colon = tested on: SW-620 colon
# HL-60(TB) leukemia = tested on: HL-60(TB) leukemia
# HOP-92 NSCLC = tested on: HOP-92 NSCLC
# KM12 colon = tested on: KM12 colon
# SN12C renal = tested on: SN12C renal
# OVCAR-4 ovarian = tested on: OVCAR-4 ovarian
# SF-539 CNS = tested on: SF-539 CNS
# SK-MEL-28 melanoma = tested on: SK-MEL-28 melanoma
# K-562 leukemia = tested on: K-562 leukemia
# SNB-75 CNS = tested on: SNB-75 CNS
# MOLT-4 leukemia = tested on: MOLT-4 leukemia
# MDA-MB-231 breast = tested on: MDA-MB-231 breast
# RXF 393 renal = tested on: RXF 393 renal
# UACC-62 melanoma = tested on: UACC-62 melanoma
# MCF7 breast = tested on: MCF7 breast
# T-47D breast = tested on: T-47D breast
# NCI-H522 lung = tested on: NCI-H522 lung
# CCRF-CEM leukemia = tested on: CCRF-CEM leukemia
# A498 renal = tested on: A498 renal
# OVCAR-3 ovarian = tested on: OVCAR-3 ovarian
# HCC-2998 colon = tested on: HCC-2998 colon
# HT29 colon = tested on: HT29 colon
# UO-31 renal = tested on: UO-31 renal
# MALME-3M melanoma = tested on: MALME-3M melanoma
# SR leukemia = tested on: SR leukemia
# A549 NSCLC = tested on: A549 NSCLC
# OVCAR-8 ovarian = tested on: OVCAR-8 ovarian
# RPMI-8226 leukemia = tested on: RPMI-8226 leukemia
# 786-0 renal = tested on: 786-0 renal
# BT-549 breast = tested on: BT-549 breast
# NCI-H23 lung = tested on: NCI-H23 lung
# HCT-15 colon = tested on: HCT-15 colon
# IGROV1 ovarian = tested on: IGROV1 ovarian
structure (smiles),measurement,setting,value
CCN(CC)c1ccc(/C=N/NC(=O)c2ccc(S(N)(=O)=O)cc2)c(O)c1,GI50,NCI-H226 lung,821 nM
same,TGI,NCI-H226 lung,> 29600 nM
same,GI50,HS 578T breast,2250 nM
same,TGI,HS 578T breast,> 68000 nM
same,GI50,SF-268 CNS,220 nM
same,TGI,SF-268 CNS,17200 nM
same,GI50,HOP-62 NSCLC,226 nM
same,TGI,HOP-62 NSCLC,7180 nM
same,GI50,SK-MEL-5 melanoma,537 nM
same,TGI,SK-MEL-5 melanoma,> 20300 nM
same,GI50,COLO 205 colon,296 nM
same,TGI,COLO 205 colon,27000 nM
same,GI50,SF-295 CNS,528 nM
same,TGI,SF-295 CNS,20500 nM
same,GI50,NCI-H460 lung,467 nM
same,TGI,NCI-H460 lung,6730 nM
same,GI50,UACC-257 melanoma,404 nM
same,TGI,UACC-257 melanoma,5330 nM
same,GI50,M14 melanoma,351 nM
same,TGI,M14 melanoma,7140 nM
same,GI50,SK-OV-3 ovarian,394 nM
same,TGI,SK-OV-3 ovarian,18400 nM
same,GI50,LOX IMVI melanoma,187 nM
same,TGI,LOX IMVI melanoma,3610 nM
same,GI50,OVCAR-5 ovarian,1640 nM
same,TGI,OVCAR-5 ovarian,> 84500 nM
same,GI50,PC-3 prostate,345 nM
same,TGI,PC-3 prostate,> 100000 nM
same,GI50,MDA-MB-435,659 nM
same,TGI,MDA-MB-435,> 100000 nM
same,GI50,CAKI-1 renal,393 nM
same,TGI,CAKI-1 renal,30900 nM
same,GI50,DU-145 prostate,540 nM
same,TGI,DU-145 prostate,> 79600 nM
same,GI50,NCI/ADR-RES ovarian,1390 nM
same,TGI,NCI/ADR-RES ovarian,> 100000 nM
same,GI50,HCT-116 colon,205 nM
same,TGI,HCT-116 colon,56700 nM
same,GI50,SNB-19 CNS,669 nM
same,TGI,SNB-19 CNS,29900 nM
same,GI50,U251 CNS,159 nM
same,TGI,U251 CNS,16500 nM
same,GI50,SK-MEL-2 melanoma,2250 nM
same,TGI,SK-MEL-2 melanoma,53100 nM
same,GI50,EKVX NSCLC,397 nM
same,TGI,EKVX NSCLC,> 100000 nM
same,GI50,TK-10 renal,373 nM
same,TGI,TK-10 renal,40100 nM
same,GI50,ACHN renal,465 nM
same,TGI,ACHN renal,> 100000 nM
same,GI50,SW-620 colon,429 nM
same,TGI,SW-620 colon,> 100000 nM
same,GI50,HL-60(TB) leukemia,206 nM
same,GI50,HOP-92 NSCLC,216 nM
same,TGI,HOP-92 NSCLC,13100 nM
same,GI50,KM12 colon,579 nM
same,TGI,KM12 colon,> 100000 nM
same,GI50,SN12C renal,638 nM
same,TGI,SN12C renal,> 64800 nM
same,GI50,OVCAR-4 ovarian,304 nM
same,TGI,OVCAR-4 ovarian,> 85400 nM
same,GI50,SF-539 CNS,390 nM
same,TGI,SF-539 CNS,7870 nM
same,GI50,SK-MEL-28 melanoma,352 nM
same,TGI,SK-MEL-28 melanoma,> 64500 nM
same,GI50,K-562 leukemia,408 nM
same,TGI,K-562 leukemia,> 100000 nM
same,GI50,SNB-75 CNS,351 nM
same,GI50,MOLT-4 leukemia,322 nM
same,TGI,MOLT-4 leukemia,> 100000 nM
same,GI50,MDA-MB-231 breast,389 nM
same,TGI,MDA-MB-231 breast,28600 nM
same,GI50,RXF 393 renal,541 nM
same,TGI,RXF 393 renal,8710 nM
same,GI50,UACC-62 melanoma,346 nM
same,TGI,UACC-62 melanoma,5140 nM
same,GI50,MCF7 breast,399 nM
same,TGI,MCF7 breast,> 100000 nM
same,GI50,T-47D breast,2030 nM
same,TGI,T-47D breast,> 100000 nM
same,GI50,NCI-H522 lung,310 nM
same,TGI,NCI-H522 lung,> 45300 nM
same,GI50,CCRF-CEM leukemia,105 nM
same,TGI,CCRF-CEM leukemia,> 100000 nM
same,GI50,A498 renal,982 nM
same,TGI,A498 renal,32700 nM
same,GI50,OVCAR-3 ovarian,137 nM
same,TGI,OVCAR-3 ovarian,> 100000 nM
same,GI50,HCC-2998 colon,419 nM
same,TGI,HCC-2998 colon,> 80100 nM
same,GI50,HT29 colon,485 nM
same,TGI,HT29 colon,> 54900 nM
same,GI50,UO-31 renal,399 nM
same,TGI,UO-31 renal,> 100000 nM
same,GI50,MALME-3M melanoma,482 nM
same,TGI,MALME-3M melanoma,9430 nM
same,GI50,SR leukemia,63.1 nM
same,GI50,A549 NSCLC,1440 nM
same,TGI,A549 NSCLC,> 100000 nM
same,GI50,OVCAR-8 ovarian,279 nM
same,TGI,OVCAR-8 ovarian,> 49600 nM
same,GI50,RPMI-8226 leukemia,3640 nM
same,TGI,RPMI-8226 leukemia,> 100000 nM
same,GI50,786-0 renal,370 nM
same,TGI,786-0 renal,8870 nM
same,GI50,BT-549 breast,480 nM
same,TGI,BT-549 breast,7730 nM
same,GI50,NCI-H23 lung,1110 nM
same,TGI,NCI-H23 lung,> 100000 nM
same,GI50,HCT-15 colon,318 nM
same,TGI,HCT-15 colon,> 100000 nM
same,GI50,IGROV1 ovarian,437 nM
same,TGI,IGROV1 ovarian,> 100000 nM
